Assay in all cases: NCI tumour cell line growth inhibition, 48 h
In assay [1] the test system is IGROV-1.
The subject of assay [2] is SF-295.
The test system of assay [3] is HOP-62.
In assay [4] the test system is COLO 205.
For assay [5], the system named is SR.
The subject of assay [6] is HT-29.
In assay [7] the test system is HCT-116.
In assay [8] the test system is UACC-257.
The test system of assay [9] is A498.
For assay [10], the system named is M14.
Assay [11] deals with SK-OV-3.
Assay [12] deals with NCI-H23.
Assay [13] deals with SK-MEL-5.
For assay [14], the system named is Malme-3M.
The subject of assay [15] is SK-MEL-2.
For assay [16], the system named is HOP-92.
Assay [17] concerns U-251.
Assay [18] has as its system EKVX.

Each structure is given as a SMILES string.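 Grown in 96-well plates, cells were treated for 48 hours with each compound at five concentrations. Insufficient inhibition: endpoint recorded as highest concentration tested. The concentration for 50% growth inhibition is given as GI50.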 The source made the active and inactive calls. Rule as the data show it: active = GI50 up to about 1.1 µM and inactive = higher.

As to `OC(Cn1cncn1)(Cn1cncn1)c1ccc(Cl)cc1Cl`, the GI50 in assay [1], in [2], in assay [3], in assay [4], in assay [5] and in [6] was > 100 µM (inactive) each time. For the same molecule, the GI50 in assay [7], in assay [8], in assay [9], in [10], in [11] and in assay [12] was > 100 µM (inactive) throughout. Moreover, the GI50 in assay [13], in assay [14], in assay [15], in assay [16] and in assay [17] was > 100 µM (inactive) in each case.

In the case of `O=C(NC(Cc1ccccc1)C(=O)CCl)OCc1ccccc1` (stereo not drawn), the GI50 in [1] was 13.2 µM (inactive); in [2] it was 14.1 µM (inactive); in assay [3], 15.3 µM (inactive); in assay [4] it was 7.16 µM (inactive); in assay [5] it was 6.24 µM (inactive); in assay [6], 16.6 µM (inactive). For the same molecule, the GI50 in [7] is 13.6 µM (inactive); in [8], 13 µM (inactive); in assay [9] it was 14.1 µM (inactive); in assay [10], 10.6 µM (inactive); in [11], 14.4 µM (inactive); in [12] it was 9.2 µM (inactive). Moreover, the GI50 was 13.4 µM (inactive) in assay [13]; 11.4 µM (inactive) in assay [14]; 10.3 µM (inactive) in assay [15]; 13 µM (inactive) in [16]; 10.8 µM (inactive) in assay [17].

Regarding `O=C1CCC2(c3ccc(Cl)cc3)Nc3ccccc3N12` (stereo not drawn), the GI50 in assay [1] is > 100 µM (inactive); in assay [2], > 100 µM (inactive); in [3] it was > 100 µM (inactive); in assay [4], > 100 µM (inactive); in assay [5], 34.4 µM (inactive); in assay [6] it was > 100 µM (inactive). Also, the GI50 in assay [7] was 57 µM (inactive); in assay [8] it was > 100 µM (inactive); in assay [9] it was > 100 µM (inactive); in assay [12], 42.6 µM (inactive); in [18], > 100 µM (inactive); in [14] it was > 100 µM (inactive). In addition, the results for the GI50 in assay [15], in [16] and in [17] were > 100 µM (inactive), 19.9 µM (inactive) and > 100 µM (inactive), respectively.

Regarding `Cc1coc2c1C(=O)C(=O)c1ccccc1-2`, the GI50 in [1] was 1.83 µM (inactive); in [2], 1.65 µM (inactive); in [3], 1.64 µM (inactive); in assay [4], 1.5 µM (inactive); in assay [5], 1.38 µM (inactive); in [6] it was 1.8 µM (inactive). Also, the GI50 in assay [7] is 0.301 µM (active); in assay [8], 0.21 µM (active); in [9], 1.83 µM (inactive); in assay [10], 1.35 µM (inactive); in assay [11], 1.76 µM (inactive); in assay [12], 1.92 µM (inactive). Moreover, the GI50 in assay [13] is 0.56 µM (active); in assay [14] it was 1.58 µM (inactive); in [15], 1.87 µM (inactive); in [16], 0.401 µM (active); in [17] it was 1.61 µM (inactive).

On to `Cc1nc2c(=O)[nH]c(=O)n(C)c2[nH]c1=O.c1ccncc1`, for which the GI50 in assay [1], in assay [3], in [4], in [5], in assay [6] and in assay [7] was > 100 µM (inactive) each time. The GI50 in assay [8], in [9], in [10], in assay [11], in assay [12] and in [18] was > 100 µM (inactive) each time. For the same molecule, the GI50 in assay [13], in assay [14], in assay [15], in assay [16] and in assay [17] was > 100 µM (inactive) in each case.

Consider `CNS(=O)(=O)NN(C)S(=O)(=O)c1ccc(C)cc1`, for which the GI50 in assay [1], in assay [2], in [3], in assay [4], in assay [5] and in [6] was > 100 µM (inactive) throughout. Moreover, the GI50 in assay [7], in assay [8], in assay [9], in assay [10], in assay [11] and in assay [12] was > 100 µM (inactive) each time. In addition, the GI50 in assay [18], in assay [13], in [14], in [15] and in assay [16] was > 100 µM (inactive) throughout.

For `CC(=O)N(CCN)CCN`, the GI50 in [2], in assay [3], in assay [4], in [5], in assay [7] and in assay [8] was > 10 µM (inactive) throughout. Also, the GI50 in assay [9] is > 10 µM (inactive); in assay [10], > 10 µM (inactive); in assay [11], > 100 µM (inactive); in assay [12] it was > 10 µM (inactive); in assay [18], > 100 µM (inactive); in assay [13] it was > 100 µM (inactive). The GI50 in [15] is > 100 µM (inactive); in assay [16], > 10 µM (inactive); in assay [17], > 10 µM (inactive).

Regarding `CN1CCCC2(CCCc3ccccc32)C1` (stereo not drawn), the GI50 in assay [1], in [2], in assay [3], in assay [4], in assay [5] and in assay [6] was > 100 µM (inactive) throughout. For the same molecule, the GI50 in assay [7], in [8], in assay [9], in [10], in assay [11] and in assay [12] was > 100 µM (inactive) each time. The GI50 in assay [18] is > 100 µM (inactive); in assay [13] it was > 100 µM (inactive); in [14], > 100 µM (inactive); in assay [15], > 100 µM (inactive); in [16], 69.5 µM (inactive); in assay [17], > 100 µM (inactive).

As for `CC1=C(Cl)C=CP(=O)(OC(C)C)C1` (stereo not drawn), the GI50 in [1] was > 100 µM (inactive); in assay [2] it was > 100 µM (inactive); in [3], > 100 µM (inactive); in assay [4] it was > 100 µM (inactive); in assay [5], 46.2 µM (inactive); in assay [6], > 100 µM (inactive). The GI50 in assay [7] was 37.2 µM (inactive); in assay [8], > 100 µM (inactive); in [9], > 100 µM (inactive); in assay [10], 61.7 µM (inactive); in [12], > 100 µM (inactive); in assay [18], > 100 µM (inactive). Besides, the GI50 in assay [13], in assay [14], in [15], in assay [16] and in [17] was > 100 µM (inactive) throughout.

Turning to `O=c1c2cccnc2ncn1CCCN1CCCCC1`, the GI50 in assay [1], in assay [2], in assay [3], in assay [4], in assay [5] and in [6] was > 100 µM (inactive) in each case. Also, the GI50 in assay [7], in [10], in assay [11], in assay [12], in assay [18] and in [13] was > 100 µM (inactive) throughout. In addition, the GI50 in assay [14], in [15], in assay [16] and in [17] was > 100 µM (inactive) in each case.

Turning to `COC(OC)c1cc2c(cc1C=O)OCO2`, the GI50 in assay [1], in [3], in assay [5], in [6], in [7] and in [8] was > 100 µM (inactive) throughout. The GI50 in assay [10] was 48.9 µM (inactive); in [11], 43.8 µM (inactive); in [12] it was > 100 µM (inactive); in [18] it was > 100 µM (inactive); in assay [13], 30.6 µM (inactive); in [14], 0.276 µM (active). In addition, the GI50 in assay [15] is > 100 µM (inactive); in assay [16], 80.7 µM (inactive); in [17] it was > 100 µM (inactive).

Take `CCC(C)n1c(C)nc2c1C(=O)c1ccccc1C2=O` (stereo not drawn): the GI50 in assay [1] is 45.1 µM (inactive); in [2], 49.8 µM (inactive); in assay [3] it was 58.2 µM (inactive); in [4] it was 43.5 µM (inactive); in assay [5], 47.5 µM (inactive); in assay [6] it was 40.4 µM (inactive). The GI50 in assay [7] was 31.6 µM (inactive); in [8], 27.9 µM (inactive); in assay [10], > 100 µM (inactive); in assay [11] it was > 100 µM (inactive); in assay [12], 33.2 µM (inactive); in [18], 96.8 µM (inactive). The GI50 in assay [13] is 26.9 µM (inactive); in assay [14], 32.2 µM (inactive); in assay [15], > 100 µM (inactive); in [16], 22.1 µM (inactive); in assay [17], 44.8 µM (inactive).

The record behind these values is ChEMBL document CHEMBL1201862, “PubChem BioAssay data set” (2004).
